One test deals with O-acyltransferase (Oryctolagus cuniculus, UniProt G1SFD9). Put plainly: In vitro Acyl coenzyme A:cholesterol acyltransferase inhibitory activity (IAI) was determined by measuring the incorporation of [1-14C]oleolyl-CoA into cholesterol esters by intestinal microsomes isolated from cholesterol-fed rabbits. On the set-up: species or system Intestine.
The test system of the next test is Rattus norvegicus. In words: In vivo hypocholesterolemic activity was measured in an acute, cholesterol-fed rat model (APCC) at 30 mg/kg dose. It is filed as functional.

The structures appear in SMILES notation. Where only a bound is given, the exact number is not on record here.

Sequence of O-acyltransferase (G1SFD9 1-524): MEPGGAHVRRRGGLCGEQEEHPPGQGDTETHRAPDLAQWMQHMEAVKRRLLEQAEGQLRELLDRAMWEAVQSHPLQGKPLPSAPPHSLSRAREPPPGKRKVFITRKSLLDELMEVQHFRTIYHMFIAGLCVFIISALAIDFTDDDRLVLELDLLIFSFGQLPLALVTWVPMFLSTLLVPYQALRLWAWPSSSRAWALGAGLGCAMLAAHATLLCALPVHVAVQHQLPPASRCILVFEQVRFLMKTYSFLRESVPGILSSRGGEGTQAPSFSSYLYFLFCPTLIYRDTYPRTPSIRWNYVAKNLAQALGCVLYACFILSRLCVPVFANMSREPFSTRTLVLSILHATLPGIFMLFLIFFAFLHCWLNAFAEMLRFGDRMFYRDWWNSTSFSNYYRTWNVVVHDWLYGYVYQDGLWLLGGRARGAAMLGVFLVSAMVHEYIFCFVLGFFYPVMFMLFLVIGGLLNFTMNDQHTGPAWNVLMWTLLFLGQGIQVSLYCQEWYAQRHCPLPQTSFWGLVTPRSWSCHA

Usually IC50 stands for the midpoint of a concentration-inhibition curve. Lower therefore signals greater potency. Molecule `CCCCCC(C)OC(=O)NC(=O)Oc1c(C(C)C)cccc1C(C)C` (racemic) returned an IC50 against O-acyltransferase of 102 nM. In addition, in the test with Rattus norvegicus, the “Delta TC” value is recorded as below -60%.
For the molecule `CCCCCCCCCCCCSC(=O)NC(=O)Oc1c(OC)cc(OC)cc1OC`, the IC50 against O-acyltransferase was 250 nM. The “Delta TC” value in the test with Rattus norvegicus is reported as below -59%.
The like results for `CCCCCCCCN(CCCCCCCC)C(=O)NC(=O)Nc1c(C(C)C)cccc1C(C)C` were, in that order, 350 nM and 3%.
On O-acyltransferase, `CCCCCCCCC(C)OC(=O)NC(=O)Oc1c(C(C)C)cccc1C(C)C` (racemic) had an IC50 of 270 nM. Moreover, the “Delta TC” value with Rattus norvegicus is listed as below -54%.
For the molecule `CCCCCCCCCCCCCCC(C)OC(=O)NC(=O)Oc1c(C(C)C)cccc1C(C)C` (racemic), the IC50 on O-acyltransferase came out at 58 nM. Besides, the “Delta TC” value with Rattus norvegicus was below -43%.
In turn, `CCCCCCCCCCCCSC(=O)NC(=O)Sc1c(C(C)C)cccc1C(C)C` registered an IC50 at O-acyltransferase above 5000 nM. Moreover, the “Delta TC” value in the test on Rattus norvegicus is recorded as below -36%.
The like results for `CCCCCCCCCCCCC(C)OC(=O)N(C)C(=O)Oc1c(C(C)C)cccc1C(C)C` (racemic) were, in that order, above 1000 nM and -8%.
Molecule `CCCCCCCCCCCCC(C)OC(=O)NC(=O)Nc1c(C(C)C)cccc1C(C)C` (stereo unspecified) returned an IC50 against O-acyltransferase of 46 nM. The “Delta TC” value with Rattus norvegicus is given as below -33%.
